Experimental data published in patent US6809065B2, “Herbicide containing substituted pyrazole derivative as active ingredient” (SDS Biotech K.K., priority 2001, dated 2004).

Key:
Chenopodium album [1] = assay: Upland field foliage treatment (Test Example 1); type: in vivo; details: foliage treatment 14th day after sowing, wettable powder, 1 kg active ingredient per hectare, evaluated 21st day after application
Method in brief: (§1)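 Read-out is a visual index scored 21 days after treatment. Higher values mean more herbicidal effect on weeds and lower values mean better crop safety. Plants were raised from seed in upland soil and received a leaf-surface spray of 1 kg active ingredient per hectare at 14 days.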

Digitaria adscendens [2] = assay: Upland field foliage treatment (Test Example 1); type: in vivo; details: foliage treatment 14th day after sowing, wettable powder, 1 kg active ingredient per hectare, evaluated 21st day after application
Method in brief: as §1

Setaria viridis [3] = assay: Upland field foliage treatment (Test Example 1); type: in vivo; details: foliage treatment 14th day after sowing, wettable powder, 1 kg active ingredient per hectare, evaluated 21st day after application
Method in brief: as §1

Stellaria media [4] = assay: Upland field foliage treatment (Test Example 1); type: in vivo; details: foliage treatment 14th day after sowing, wettable powder, 1 kg active ingredient per hectare, evaluated 21st day after application
Method in brief: as §1

soybean (Glycine max) [5] = assay: Upland field foliage treatment (Test Example 1), crop; type: in vivo; details: foliage treatment 14th day after sowing, 1 kg active ingredient per hectare, evaluated 21st day, lower index = higher safety
Method in brief: as §1

[6] = system: wheat (Triticum aestivum); assay: as above; type: in vivo; details: foliage treatment 14th day after sowing, 1 kg active ingredient per hectare, evaluated 21st day, lower index = higher safety
Method in brief: as §1

Chenopodium album [7] = assay: Upland soil treatment (Test Example 2); type: in vivo; details: soil surface treatment next day after sowing, wettable powder, 1 kg active ingredient per hectare, evaluated 21st day after application
Method in brief: (§2)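 Index rating at day 21 after a single pre-emergence soil-surface application, 1 kg a.i./ha, made the day after sowing in upland soil; for crops a lower index indicates higher safety.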

Digitaria adscendens [8] = assay: Upland soil treatment (Test Example 2); type: in vivo; details: soil surface treatment next day after sowing, wettable powder, 1 kg active ingredient per hectare, evaluated 21st day after application
Method in brief: as §2

Setaria viridis [9] = assay: Upland soil treatment (Test Example 2); type: in vivo; details: soil surface treatment next day after sowing, wettable powder, 1 kg active ingredient per hectare, evaluated 21st day after application
Method in brief: as §2

Stellaria media [10] = assay: Upland soil treatment (Test Example 2); type: in vivo; details: soil surface treatment next day after sowing, wettable powder, 1 kg active ingredient per hectare, evaluated 21st day after application
Method in brief: as §2

soybean (Glycine max) [11] = assay: Upland soil treatment (Test Example 2), crop; type: in vivo; details: soil surface treatment next day after sowing, 1 kg active ingredient per hectare, evaluated 21st day, lower index = higher safety
Method in brief: as §2

[12] = system: wheat (Triticum aestivum); assay: Upland soil treatment (Test Example 2), crop; type: in vivo; details: soil surface treatment next day after sowing, 1 kg active ingredient per hectare, evaluated 21st day, lower index = higher safety
Method in brief: as §2

Echinochloa spp. = assay: Paddy field treatment (Test Example 3); type: in vivo, Echinochloa crusgalli; details: paddy pot, submerged 4 cm, dropped on water surface 10th day after transplantation, 1 kg active ingredient per hectare, evaluated 21st day
Method in brief: (§3)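 Pot test, flooded paddy soil (4 cm water); weeds sown, 2-leaf rice (Koshihikari) transplanted. Day 10 post-transplant: WP dropped on water, 1 kg a.i./ha. Score index at 21 d after application; higher = stronger herbicidal effect.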

Ammannia multiflora = assay: Paddy field treatment (Test Example 3); type: in vivo; details: paddy pot, submerged 4 cm, dropped on water surface 10th day after transplantation, 1 kg active ingredient per hectare, evaluated 21st day
Method in brief: as §3

Monochoria vaginalis = assay: Paddy field treatment (Test Example 3); type: in vivo; details: paddy pot, submerged 4 cm, dropped on water surface 10th day after transplantation, 1 kg active ingredient per hectare, evaluated 21st day
Method in brief: as §3

Scirpus juncoides = assay: Paddy field treatment (Test Example 3); type: in vivo; details: paddy pot, submerged 4 cm, dropped on water surface 10th day after transplantation, 1 kg active ingredient per hectare, evaluated 21st day
Method in brief: as §3

[13] = system: rice (Oryza sative, variety: Koshihikari); assay: Paddy field treatment (Test Example 3), crop; type: in vivo, Oryza sativa; details: transplanted rice two-leaf period, water surface treatment 10th day after transplantation, 1 kg active ingredient per hectare, evaluated 21st day, lower index = higher safety
Method in brief: as §3

| SMILES | Herbicidal activity Chenopodium album (Chenopodium album [1]) | Herbicidal activity Digitaria adscendens (Digitaria adscendens [2]) | Herbicidal activity Setaria viridis (Setaria viridis [3]) | Herbicidal activity Stellaria media (Stellaria media [4]) | Herbicidal activity Glycine max (soybean (Glycine max) [5]) | Herbicidal activity Triticum aestivum [6] | Herbicidal activity Chenopodium album (Chenopodium album [7]) | Herbicidal activity Digitaria adscendens (Digitaria adscendens [8]) | Herbicidal activity Setaria viridis (Setaria viridis [9]) | Herbicidal activity Stellaria media (Stellaria media [10]) | Herbicidal activity Glycine max (soybean (Glycine max) [11]) | Herbicidal activity Triticum aestivum [12] | Herbicidal activity Echinochloa spp. (Echinochloa spp.) | Herbicidal activity Ammannia multiflora (Ammannia multiflora) | Herbicidal activity Monochoria vaginalis (Monochoria vaginalis) | Herbicidal activity Scirpus juncoides (Scirpus juncoides) | Herbicidal activity Oryza sativa [13] |
| --- | --- | --- | --- | --- | --- | --- | --- | --- | --- | --- | --- | --- | --- | --- | --- | --- | --- |
| CCc1cc(-c2ccccc2)nn1CC(=COC)C(=O)OC [Compound 36] | 5 (herbicidal effect of not less than 90% by weight) | 4 (herbicidal effect of not less than 70% by weight and less than 90% by weight) | 5 (herbicidal effect of not less than 90% by weight) | 5 (herbicidal effect of not less than 90% by weight) | 1 (herbicidal effect of not less than 10% by weight and less than 30% by weight) | 1 (herbicidal effect of not less than 10% by weight and less than 30% by weight) | 4 (herbicidal effect of not less than 70% by weight and less than 90% by weight) | 4 (herbicidal effect of not less than 70% by weight and less than 90% by weight) | 4 (herbicidal effect of not less than 70% by weight and less than 90% by weight) | 4 (herbicidal effect of not less than 70% by weight and less than 90% by weight) | 0 (herbicidal effect of not less than 0% by weight and less than 10% by weight) | 0 (herbicidal effect of not less than 0% by weight and less than 10% by weight) | 3 (herbicidal effect of not less than 50% by weight and less than 70% by weight) | 3 (herbicidal effect of not less than 50% by weight and less than 70% by weight) | 3 (herbicidal effect of not less than 50% by weight and less than 70% by weight) | 3 (herbicidal effect of not less than 50% by weight and less than 70% by weight) | 0 (herbicidal effect of not less than 0% by weight and less than 10% by weight) |
| COC=C(Cn1nc(-c2ccccc2)cc1SC)C(=O)OC [Compound 37] | 5 (herbicidal effect of not less than 90% by weight) | 4 (herbicidal effect of not less than 70% by weight and less than 90% by weight) | 4 (herbicidal effect of not less than 70% by weight and less than 90% by weight) | 5 (herbicidal effect of not less than 90% by weight) | 0 (herbicidal effect of not less than 0% by weight and less than 10% by weight) | 0 (herbicidal effect of not less than 0% by weight and less than 10% by weight) | 4 (herbicidal effect of not less than 70% by weight and less than 90% by weight) | 5 (herbicidal effect of not less than 90% by weight) | 5 (herbicidal effect of not less than 90% by weight) | 5 (herbicidal effect of not less than 90% by weight) | 0 (herbicidal effect of not less than 0% by weight and less than 10% by weight) | 0 (herbicidal effect of not less than 0% by weight and less than 10% by weight) | 3 (herbicidal effect of not less than 50% by weight and less than 70% by weight) | 3 (herbicidal effect of not less than 50% by weight and less than 70% by weight) | 3 (herbicidal effect of not less than 50% by weight and less than 70% by weight) | 3 (herbicidal effect of not less than 50% by weight and less than 70% by weight) | 0 (herbicidal effect of not less than 0% by weight and less than 10% by weight) |
| COC=C(Cn1nc(-c2cccc(Cl)c2)cc1SC)C(=O)OC [Compound 38] | 5 (herbicidal effect of not less than 90% by weight) | 4 (herbicidal effect of not less than 70% by weight and less than 90% by weight) | 4 (herbicidal effect of not less than 70% by weight and less than 90% by weight) | 5 (herbicidal effect of not less than 90% by weight) | 1 (herbicidal effect of not less than 10% by weight and less than 30% by weight) | 0 (herbicidal effect of not less than 0% by weight and less than 10% by weight) | 4 (herbicidal effect of not less than 70% by weight and less than 90% by weight) | 4 (herbicidal effect of not less than 70% by weight and less than 90% by weight) | 4 (herbicidal effect of not less than 70% by weight and less than 90% by weight) | 4 (herbicidal effect of not less than 70% by weight and less than 90% by weight) | 0 (herbicidal effect of not less than 0% by weight and less than 10% by weight) | 0 (herbicidal effect of not less than 0% by weight and less than 10% by weight) | 3 (herbicidal effect of not less than 50% by weight and less than 70% by weight) | 3 (herbicidal effect of not less than 50% by weight and less than 70% by weight) | 4 (herbicidal effect of not less than 70% by weight and less than 90% by weight) | 3 (herbicidal effect of not less than 50% by weight and less than 70% by weight) | 0 (herbicidal effect of not less than 0% by weight and less than 10% by weight) |
| CCc1c(Cl)c(-c2ccccc2)nn1CC(=COC)C(=O)OC [Compound 39] | 5 (herbicidal effect of not less than 90% by weight) | 4 (herbicidal effect of not less than 70% by weight and less than 90% by weight) | 4 (herbicidal effect of not less than 70% by weight and less than 90% by weight) | 5 (herbicidal effect of not less than 90% by weight) | 1 (herbicidal effect of not less than 10% by weight and less than 30% by weight) | 0 (herbicidal effect of not less than 0% by weight and less than 10% by weight) | 4 (herbicidal effect of not less than 70% by weight and less than 90% by weight) | 4 (herbicidal effect of not less than 70% by weight and less than 90% by weight) | 4 (herbicidal effect of not less than 70% by weight and less than 90% by weight) | 4 (herbicidal effect of not less than 70% by weight and less than 90% by weight) | 0 (herbicidal effect of not less than 0% by weight and less than 10% by weight) | 0 (herbicidal effect of not less than 0% by weight and less than 10% by weight) | 4 (herbicidal effect of not less than 70% by weight and less than 90% by weight) | 3 (herbicidal effect of not less than 50% by weight and less than 70% by weight) | 3 (herbicidal effect of not less than 50% by weight and less than 70% by weight) | 4 (herbicidal effect of not less than 70% by weight and less than 90% by weight) | 0 (herbicidal effect of not less than 0% by weight and less than 10% by weight) |
